In publication PMC5739799 (Oncotarget, 2017):
Read-outs that look alike come from different tables or passages of the source.

Columns and labels:
HCC-PDX model 217 = assay: Patient-derived HCC xenograft model 217, tumor growth; assay type: in vivo, BALB/c nude mice; conditions: for Mean TV: day 13, R 10 / S 30 mg/kg/day oral; for RTV: end of study (RTV analysis day R 24, S 20)
Experimental: (§1) The PDX studies were carried out by WuXi AppTec (Shanghai, China). HCC-PDX models were originally established from surgically resected tumor tissue that was implanted in 6–8-week-old female BALB/c nude mice. Animal studies were performed according to the guidelines approved by the Institutional Animal Care and Use Committee of Wuxi AppTec, which follow the guidance of the Association for the Assessment and Accreditation of Laboratory Animal Care. Animals were routinely monitored for their health status and their body weights. Treatment was suspended and/or doses reduced at body weight losses >10%. Animals were euthanized when the tumor size exceeded 2000 mm^3. Pieces from tumor xenografts (∼30 mm^3) from passages 4–8 (ST1) were implanted subcutaneously at the right flank, and tumors were grown to an average size of about 150–200 mm^3. […] Tumor size was measured twice weekly using caliper measurements. Tumor volume (mm^3) was calculated using the formula 0.5 a × b^2, where a and b are the long and short diameters of the tumor, respectively. TGI was assessed either by calculating the ratio of the mean tumor volumes of treated and control groups or by determination of the RTV, which relates tumor volumes at any given day of treatment to the volume at the first treatment day.
(§2) In the syngenic orthotopic H129 model, differences in survival times between groups were analyzed for significance using log-rank tests. Analysis of tumor volumes of the HCC-PDX models was performed with log2-transformed values on defined days of measurement based on the assumption of their log-normal distribution. […] All respective statistical test results were derived from a common linear model that allows for individual variances in the different groups. The adjustment for multiple testing was carried out using Šidák correction at a significance level of 0.05. Back transformation of the mean difference of log2-transformed tumor volumes led to the ratios of the compared groups, whereby ratios of 1 reflect no difference in tumor volumes and ratios below or above 1 reflect smaller or larger tumor volumes, respectively, of the respective second group. The analyses of RTV were carried out in a similar fashion without the log2 transformation of values. Bead-based western data were analyzed (described in [15]) using the MEV 4.8.1 software package. A p-value <0.05 was regarded as significant. All statistical analyses were performed with SAS® 9.4 [34].

unresectable HCC (uHCC) [1] = conditions: patients with uHCC; placebo 7.9 months; cited from earlier work
[2] = test system: HCC-PDX model 189 xenografts; assay: DigiWest bead-based multiplex western blot of treated xenografts; assay type: in vivo, BALB/c nude mice; conditions: 24 hours after last dose, sorafenib 30 mg/kg/day
Experimental: For high-content Western analysis, DigiWest was performed as described by Treindl et al.. In brief, xenograft tissue was ground by a Mikro-Dismembrator (Sartorius) and subsequently lysed by the addition of 2× LDS lysis buffer (Life Technologies™) and heated to 95°C for 9 minutes with several vortexing steps. Undissolved material was removed by consecutive centrifugation at 20°C for 2 minutes at 300 x g, 5 minutes at 16,000 x g, and through a QIAshredder homogenizer tube (Qiagen) for 5 minutes at 16,000 x g. Protein concentration was determined by in-gel staining. 3 μL lysate was separated by SDS-PAGE stained with IRDye® Blue and detected with a Li-COR Odyssey Infrared Imaging System (Li-COR Biosciences, Bad Homburg, Germany) at 700 nm. Next, 12 μg protein per sample was separated using 4–12% Bis-Tris gels (Life Technologies™) according to the manufacturer’s instructions. Blotting onto PVDF membranes (Millipore) was performed under standard conditions. Proteins immobilized on the blotting membrane were biotinylated (NHS-PEG12-Biotin, Thermo Scientific) and individual sample lanes were cut into 96 strips each (height 0.5 mm each, strip width 7.5 mm) using an electronic cutting tool (Silhouette SD). Each individual strip was placed in a separate well of a 96-well plate, and protein was eluted for 2 hours in 10 μL elution buffer (8 M urea, 1% Triton-X100 in 100 mM Tris-HCl, pH 9.5). After the addition of 90 μL of dilution buffer (5% BSA in PBS, 0.02% sodium azide, 0.05% Tween-20), 96 different Neutravidin-coated Luminex bead sets (40,000 beads/well) were added to the individual wells, and eluted biotinylated proteins were captured on the bead surface during overnight incubation. After incubation, the Luminex beads were pooled, washed, and stored in storage buffer (1% BSA, 0.05% Tween-20, 0.05% sodium azide in PBS) at 4°C.
For antibody incubation, an aliquot of the bead pool was transferred into an assay plate and 30 μL of diluted western blot antibody in assay buffer (Blocking Reagent, Roche Applied Science; 0.05% Tween 20, 0.02% sodium azide, 0.2% milk powder) was added per well. 116 antibody incubations on 12 samples were performed overnight at 4°C. For read-out, beads were washed twice with 100 μL of PBST before species-specific PE-labeled secondary antibodies (Jackson) were added in 30 μL of assay buffer for 1 hour. […]
DigiWest analysis was performed as previously described. In brief, data generated by the Luminex instrument were analyzed using a dedicated analysis tool that visualizes the fluorescent signals as bar graphs and identifies antibody-specific peaks. […] After background correction, specific signal intensities are calculated as the integral of the identified peak.

HCC-PDX model 19 = assay: Patient-derived HCC xenograft model 19, tumor growth; assay type: in vivo, BALB/c nude mice; conditions: for Mean TV: day 28, R 10 / S 30 mg/kg/day oral starting dose; for RTV: end of study
Experimental: as §1, §2

unresectable HCC (uHCC) [3] = conditions: placebo 4.2 months; cited from earlier work
[4] = test system: uHCC progressed on sorafenib treatment; parameters: method as in PMID 27932229; conditions: patients with uHCC who progressed on sorafenib, cited from earlier work

SMILES: CNC(=O)c1cc(Oc2ccc(NC(=O)Nc3ccc(Cl)c(C(F)(F)F)c3)cc2)ccn1 [Sorafenib]
- Mean TV (HCC-PDX model 217): 1087.45 mm^3
- log TV Differences of least square-means, compound vs vehicle (HCC-PDX model 217; day 13, log2-transformed TV): -10,119
- RTV (HCC-PDX model 217): 10.84
- Median OS (unresectable HCC (uHCC) [1]): 10.7 months
- FGF-1 protein expression vs vehicle [2]: downregulated
- Full-length PARP protein expression vs vehicle [2]: significantly downregulated
- Mst2 protein expression vs vehicle [2]: downregulated
- cdc2-pY15 protein expression vs vehicle [2]: downregulated
- Mean TV (HCC-PDX model 19): 496.54 mm^3
- log TV Differences of least square-means, compound vs vehicle (HCC-PDX model 19; day 28, log2-transformed TV): -0.6887
- RTV Differences of least square-means, compound vs vehicle (HCC-PDX model 19; day 42): -29.3
- RTV (HCC-PDX model 19; day 42): 4.70
- Median OS (unresectable HCC (uHCC) [3]): 6.5 months

SMILES: CNC(=O)c1cc(Oc2ccc(NC(=O)Nc3ccc(Cl)c(C(F)(F)F)c3)c(F)c2)ccn1 [Regorafenib]
- RTV Differences of least square-means, regorafenib vs sorafenib (HCC-PDX model 217; RTV analysis day R 24, S 20): -14,902
- log TV Ratio, compound vs vehicle (T/C) (HCC-PDX model 217; day 13): 0.45
- log TV Ratio, regorafenib vs sorafenib (HCC-PDX model 217; day 13): 0.92
- Mean TV (HCC-PDX model 217): 932.43 mm^3
- log TV Differences of least square-means, compound vs vehicle (HCC-PDX model 217; day 13, log2-transformed TV): -11,395
- log TV Differences of least square-means, regorafenib vs sorafenib (HCC-PDX model 217; day 13, log2-transformed TV): -0.1276
- RTV (HCC-PDX model 217): 12.77
- Hazard ratio for OS vs placebo ([4]; 95% CI 0.50, 0.79): 0.63
- Median OS ([4]; placebo 7.8 months): 10.6 months
- log TV Ratio, compound vs vehicle (T/C) (HCC-PDX model 19; day 28): 0.66
- log TV Ratio, regorafenib vs sorafenib (HCC-PDX model 19; day 28): 1.06
- Mean TV (HCC-PDX model 19): 542.38 mm^3
- log TV Differences of least square-means, compound vs vehicle (HCC-PDX model 19; day 28, log2-transformed TV): -0.6083
- log TV Differences of least square-means, regorafenib vs sorafenib (HCC-PDX model 19; day 28, log2-transformed TV): 0.08047
- RTV Differences of least square-means, compound vs vehicle (HCC-PDX model 19; day 42): -24.1
- RTV Differences of least square-means, regorafenib vs sorafenib (HCC-PDX model 19; day 42): 0.5174
- RTV (HCC-PDX model 19; day 42): 5.21
